US6423689B1, “Peptidyl calcium channel blockers” (Warner-Lambert Company, priority 1997, dated 2002)
Like-named read-outs stand apart in the source and are kept apart here.

Tests used:
[1] = biological target: T1, N-type Ca2+ channels in superior cervical ganglion (SCG) neurons (Rattus norvegicus, UniProt Q02294); experiment: Whole-cell voltage clamp, N-type Ca2+ current in SCG neurons; type: cell-based; settings: for IC50: read-out: Inhibition of N-type Ca2+ Current IC50
T1 construct: from tissue
How it was run: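 Whole-cell voltage clamp of acutely trypsin-dissociated rat SCG neurons, with TEA/choline external solution (2 mM Ca2+) and Cs-methanesulfonate pipette solution. Currents evoked by 150 ms steps to +20 mV from −65 to −55 mV holding, every 40 s; compounds applied locally, effect as % inhibition of control amplitude.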

[2] = system: Na+ channels in superior cervical ganglion (SCG) neurons; experiment: Whole-cell voltage clamp, Na+ current in SCG neurons; type: cell-based, rat
How it was run: (§1)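 Acutely dissociated (trypsin) SCG neurons under whole-cell voltage clamp, external NaCl/KCl/HEPES buffer pH 7.4, K-gluconate/KCl pipette. From holding potential −65 to −55 mV, 35 msec steps every 10 sec to 0 mV (peak Na+ current) or +50 mV (sustained K+ current); compounds perfused locally to steady-state block, reported as percent inhibition of control.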

[3] = system: K+ channels in superior cervical ganglion (SCG) neurons; experiment: Whole-cell voltage clamp, K+ current in SCG neurons; type: cell-based, rat
How it was run: as §1

DBA/2 mice = experiment: animal or person; type: in vivo; settings: for responders at 10 mg/kg / responders at 30 mg/kg / responders at 100 mg/kg: Mus musculus, iv, read-out: Number of Mice Protected from Tonic Convulsions
Method: Audiogenic Seizure Model in DBA/2 Mice
In Vivo Biological Protocol
A compound of the present invention was dissolved in water using 10% (weight/volume) Emulphor (GAF Cop., Wayne N.J. surfactant. Substances were administered by intravenous injection the retro-orbital venous sinus. […] All the male mice, 3-4 weeks old were obtained from Jackson Laboratories Bar Harbour, Me. Immediately before anticonvulsant testing, mice were placed upon a wire mesh, 4 inches square suspended from a steel rod. The square was slowly inverted through 180 degree and mice observed for 30 seconds. Any mouse falling from the wire mesh was scored as ataxia.
Mice were placed into an enclosed acrylic plastic chamber (21 cm in height, approximately 30 cm diameter) with a high-frequency speaker (4 cm diameter) in the center of the top lid. An audio signal generator (Protek model B-810) was used to produce a continuous sinusoidal tone that was swept linearly in frequency between 8 kHz and 16 kHz once each 10 msec. The average sound pressure level (SPL) during stimulation was approximately 100 dB at the floor of the chamber. Mice were placed within the chamber and allowed to acclimatize for 1 minute. DBA/2 mice in the vehicle-treated group responded to the sound stimulus (applied until tonic extension occurred, or for a maximum of 60 sec) with a characteristic seizure sequence consisting of wild running followed by clonic seizures, and later by tonic extension, and finally by respiratory arrest and death in 80% or more of the mice. In vehicle-treated mice, the entire sequence of seizures to respiratory arrest lasts approximately 15-20 seconds.
The incidence of all the seizure phases in the drug-treated and vehicle-treated mice was recorded, and the occurrence of tonic seizures were used for calculating anticonvulsant ED50 values by probit analysis. Mice were used only once for testing at each time and dose point.

T1 sequence (Q02294 whole entry): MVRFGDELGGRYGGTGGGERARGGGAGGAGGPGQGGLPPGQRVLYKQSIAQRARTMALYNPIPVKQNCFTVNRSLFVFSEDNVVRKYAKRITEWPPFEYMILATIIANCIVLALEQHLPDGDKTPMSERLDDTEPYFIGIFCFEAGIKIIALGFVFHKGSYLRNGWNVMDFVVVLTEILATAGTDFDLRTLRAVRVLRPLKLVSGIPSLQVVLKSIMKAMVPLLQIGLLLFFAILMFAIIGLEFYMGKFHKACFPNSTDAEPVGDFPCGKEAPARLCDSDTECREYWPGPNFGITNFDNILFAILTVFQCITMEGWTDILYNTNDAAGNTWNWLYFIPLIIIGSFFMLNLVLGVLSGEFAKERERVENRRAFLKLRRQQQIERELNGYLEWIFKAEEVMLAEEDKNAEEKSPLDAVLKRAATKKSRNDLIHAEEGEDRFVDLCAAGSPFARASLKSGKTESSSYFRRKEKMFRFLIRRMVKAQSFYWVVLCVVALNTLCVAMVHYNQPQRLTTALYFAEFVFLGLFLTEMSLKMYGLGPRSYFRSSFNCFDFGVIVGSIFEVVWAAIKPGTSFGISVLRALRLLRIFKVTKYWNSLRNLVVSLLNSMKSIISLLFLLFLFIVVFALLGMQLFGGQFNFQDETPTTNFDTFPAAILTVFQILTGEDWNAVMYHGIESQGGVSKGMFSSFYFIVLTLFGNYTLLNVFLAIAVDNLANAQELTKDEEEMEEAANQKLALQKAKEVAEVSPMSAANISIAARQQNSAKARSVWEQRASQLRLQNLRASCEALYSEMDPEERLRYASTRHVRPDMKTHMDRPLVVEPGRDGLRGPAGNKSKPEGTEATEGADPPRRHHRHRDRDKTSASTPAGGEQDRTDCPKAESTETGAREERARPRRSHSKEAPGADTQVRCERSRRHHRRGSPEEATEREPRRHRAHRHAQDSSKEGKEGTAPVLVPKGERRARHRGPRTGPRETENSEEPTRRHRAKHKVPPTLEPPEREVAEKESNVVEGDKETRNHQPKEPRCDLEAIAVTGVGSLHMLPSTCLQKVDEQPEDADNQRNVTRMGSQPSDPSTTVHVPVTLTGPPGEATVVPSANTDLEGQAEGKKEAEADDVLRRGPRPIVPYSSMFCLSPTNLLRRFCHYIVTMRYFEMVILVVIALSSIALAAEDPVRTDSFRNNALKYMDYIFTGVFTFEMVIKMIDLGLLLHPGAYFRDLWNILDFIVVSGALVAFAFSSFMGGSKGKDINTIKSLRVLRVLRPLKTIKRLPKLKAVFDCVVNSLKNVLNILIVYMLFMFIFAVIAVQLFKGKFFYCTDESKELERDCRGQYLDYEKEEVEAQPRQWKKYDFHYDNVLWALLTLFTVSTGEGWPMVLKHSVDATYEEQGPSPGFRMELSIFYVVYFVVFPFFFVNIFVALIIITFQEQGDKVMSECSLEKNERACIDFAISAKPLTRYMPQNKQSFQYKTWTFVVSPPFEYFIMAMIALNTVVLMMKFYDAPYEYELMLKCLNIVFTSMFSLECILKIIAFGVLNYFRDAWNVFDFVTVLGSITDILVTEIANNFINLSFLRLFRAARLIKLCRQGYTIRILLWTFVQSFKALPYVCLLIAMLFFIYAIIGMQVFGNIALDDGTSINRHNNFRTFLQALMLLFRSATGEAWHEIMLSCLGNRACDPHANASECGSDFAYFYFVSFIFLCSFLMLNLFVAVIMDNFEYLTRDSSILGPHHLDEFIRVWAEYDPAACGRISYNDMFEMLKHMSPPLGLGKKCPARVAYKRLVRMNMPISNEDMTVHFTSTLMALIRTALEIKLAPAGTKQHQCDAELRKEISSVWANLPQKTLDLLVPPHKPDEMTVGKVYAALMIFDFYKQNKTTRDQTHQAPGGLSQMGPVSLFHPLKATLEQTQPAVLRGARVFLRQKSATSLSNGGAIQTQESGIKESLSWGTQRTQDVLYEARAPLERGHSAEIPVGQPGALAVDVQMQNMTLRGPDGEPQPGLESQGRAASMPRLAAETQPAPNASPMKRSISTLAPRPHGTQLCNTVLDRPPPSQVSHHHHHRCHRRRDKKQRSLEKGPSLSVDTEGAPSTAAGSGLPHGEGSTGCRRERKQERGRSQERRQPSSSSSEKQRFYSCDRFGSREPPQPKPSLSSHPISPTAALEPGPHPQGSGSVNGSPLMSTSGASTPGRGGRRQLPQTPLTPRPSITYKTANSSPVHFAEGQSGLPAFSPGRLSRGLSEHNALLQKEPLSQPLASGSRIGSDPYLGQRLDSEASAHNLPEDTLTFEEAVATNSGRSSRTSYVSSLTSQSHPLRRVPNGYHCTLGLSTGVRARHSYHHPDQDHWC
T1 sequence (P54290 25-944 partner limits assumed): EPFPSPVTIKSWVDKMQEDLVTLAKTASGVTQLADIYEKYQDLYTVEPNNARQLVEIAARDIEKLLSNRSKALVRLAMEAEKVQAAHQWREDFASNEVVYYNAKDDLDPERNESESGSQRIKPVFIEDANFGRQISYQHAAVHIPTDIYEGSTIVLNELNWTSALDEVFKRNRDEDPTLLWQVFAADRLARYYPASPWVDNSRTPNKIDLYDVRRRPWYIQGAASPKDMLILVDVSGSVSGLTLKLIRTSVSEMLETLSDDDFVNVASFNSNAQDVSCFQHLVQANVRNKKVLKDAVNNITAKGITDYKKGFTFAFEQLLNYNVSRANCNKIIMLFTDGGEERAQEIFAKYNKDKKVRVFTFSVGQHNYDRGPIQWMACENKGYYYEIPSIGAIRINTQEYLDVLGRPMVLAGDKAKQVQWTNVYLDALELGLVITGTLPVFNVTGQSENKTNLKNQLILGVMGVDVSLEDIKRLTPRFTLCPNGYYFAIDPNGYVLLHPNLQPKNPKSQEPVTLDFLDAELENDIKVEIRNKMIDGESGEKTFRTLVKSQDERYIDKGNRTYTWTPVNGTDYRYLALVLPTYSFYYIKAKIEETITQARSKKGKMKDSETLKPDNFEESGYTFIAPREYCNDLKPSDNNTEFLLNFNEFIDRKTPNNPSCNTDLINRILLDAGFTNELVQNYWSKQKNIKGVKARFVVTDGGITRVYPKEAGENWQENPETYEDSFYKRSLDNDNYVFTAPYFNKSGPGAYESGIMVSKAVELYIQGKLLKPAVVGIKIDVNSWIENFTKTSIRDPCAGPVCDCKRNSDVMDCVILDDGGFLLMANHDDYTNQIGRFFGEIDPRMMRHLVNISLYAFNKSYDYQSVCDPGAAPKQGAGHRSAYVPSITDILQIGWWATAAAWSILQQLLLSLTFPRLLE
T1 sequence (P54290 945-1091 partner limits assumed): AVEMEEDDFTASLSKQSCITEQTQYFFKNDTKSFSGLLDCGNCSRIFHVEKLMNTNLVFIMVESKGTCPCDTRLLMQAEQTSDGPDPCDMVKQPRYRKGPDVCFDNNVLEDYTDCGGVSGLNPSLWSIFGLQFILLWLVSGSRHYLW
T1 sequence (P54287 whole entry partner): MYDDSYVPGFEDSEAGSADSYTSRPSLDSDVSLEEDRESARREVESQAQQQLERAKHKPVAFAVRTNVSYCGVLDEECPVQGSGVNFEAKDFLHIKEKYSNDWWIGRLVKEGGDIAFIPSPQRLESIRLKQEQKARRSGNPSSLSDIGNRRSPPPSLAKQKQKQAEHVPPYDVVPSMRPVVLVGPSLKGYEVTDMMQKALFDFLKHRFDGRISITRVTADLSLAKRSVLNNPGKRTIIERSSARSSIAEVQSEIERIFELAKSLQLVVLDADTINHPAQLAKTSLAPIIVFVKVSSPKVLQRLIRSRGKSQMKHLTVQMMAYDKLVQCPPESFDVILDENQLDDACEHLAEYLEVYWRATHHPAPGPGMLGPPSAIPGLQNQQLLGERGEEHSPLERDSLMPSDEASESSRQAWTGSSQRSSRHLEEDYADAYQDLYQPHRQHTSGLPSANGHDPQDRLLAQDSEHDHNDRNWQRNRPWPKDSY

Compound	inhibition at 10 µM ([1]; 10 μM)	IC50 [1]	Inhibition of Na+ Current, % Inhibition at 10 μM [2]	Inhibition of K+ Current, % Inhibition at 10 μM [3]	responders at 30 mg/kg (DBA/2 mice; 0.25 h)	also measured
CC(C)C[C@H](NC(=O)N1CCCCCC1)C(=O)N[C@@H](Cc1ccc(OCc2ccccc2)cc1)C(=O)OC(C)(C)C [Example 1]	68%	1.27 µM	28%	31%	100%	IC50 ([2]; read-out: Inhibition of Na+ Current IC50): 14 µM; IC50 ([3]; read-out: Inhibition of K+ Current IC50): 24 µM; responders at 10 mg/kg (DBA/2 mice; 0.25 h): 0%; responders at 100 mg/kg (DBA/2 mice; 0.25 h): 100%; responders at 100 mg/kg (DBA/2 mice; 0.5 h): 100%; responders at 10 mg/kg (DBA/2 mice; 0.75 h): 0%; responders at 100 mg/kg (DBA/2 mice; 1 h): 0%
CC(C)(C)OC(=O)[C@H](Cc1ccc(OCc2ccccc2)cc1)NC(=O)[C@H](Cc1ccccc1)NC(=O)N1CCCCCC1 [Example 16]	19%		38%	20%		
CC(C)C[C@H](NC(=O)N1CCCCCC1)C(=O)N[C@@H](Cc1ccc(OCc2ccccc2)cc1)C(=O)NCCCn1ccnc1 [Example 237, [S-(R*,R*)]-Azepane-1-carboxylic acid {(1-[2-(4-benzyloxy phenyl)-1-(3-imidazol-1-yl-propylcarbamoyl)-ethylcarbamoyl]-3-methyl-butyl}-amide]	79%				0%	
CC(C)C[C@H](NC(=O)N1CCCCCC1)C(=O)N[C@@H](Cc1ccc(OCc2ccccn2)cc1)C(=O)OC(C)(C)C [Example 25, [S-(R*,R*)]-2-{2-[(Azepane-1-carbonyl)-amino]-4-methyl-pentanoylamino}-3-[4-(pyridin-2-ylmethoxy)-phenyl]-propionic acid tert-butyl ester]	66%	5.33 µM	16%	51%	100%	
CC(C)C[C@H](NC(=O)N1CCCCCC1)C(=O)N[C@@H](Cc1ccc(C=Cc2ccccc2)cc1)C(=O)NC(C)(C)C [Example 141, [S-(R*,R*)]-Azepane-1-carboxylic acid {1-[1-tert-butylcarbamoyl-2-(4-styryl-phenyl)-ethylcarbamoyl]-3-methyl-butyl}-amide]	39%		18%	42%		
CC(C)C[C@H](NC(=O)N1CCCCCC1)C(=O)N[C@@H](Cc1ccc(OCc2ccncc2)cc1)C(=O)OC(C)(C)C [Example 26, [S-(R*,R*)]-2-{2-[(Azepane-1-carbonyl)-amino]-4-methyl-pentanoylamino}-3-[4-(pyridin-4-ylmethoxy)-phenyl]-propionic acid tert-butyl ester]	58%		13%	41%		responders at 10 mg/kg (DBA/2 mice; 0.25 h): 100%
CC(C)(C)OC(=O)[C@H](Cc1ccc(OCc2ccccc2)cc1)NC(=O)CNC(=O)N1CCCCCC1 (stereo in doubt) [Example 8, [S-(R*,R*)]-2-{2-[(Azepane-1-carbonyl)-amino]-acetylamino}-3-(4-benzyloxy-phenyl)-propionic acid tert-butyl ester]		1.92 µM	43%	72%		Inhibition of N-type Ca2+ Current, % Inhibition at 10 μM ([1]; 10 μM): 86%; Number of Mice Protected from Tonic Convulsions (DBA/2 mice; 30 mg/Kg iv, 15 min post treatment): 4/5
CC(C)C[C@H](NC(=O)N1CCCCCC1)C(=O)N[C@@H](Cc1ccc(OCc2ccccc2)cc1)C(N)=O [Example 21, [S-(R*,R*)]-Azepane-1-carboxylic acid {1-[2-(4-benzyloxy-phenyl)-1-carbamoyl-ethylcarbamoyl]-3-methyl-butyl}-amide]	45%		16%	56%		responders at 30 mg/kg (DBA/2 mice; 0.75 h): 0%
CC(C)C[C@H](NC(=O)N1CCCCCC1)C(=O)N[C@@H](Cc1ccc(C#CC2(O)CCCCC2)cc1)C(=O)NC(C)(C)C [Example 138, [S-(R*,R*)]-Azepane-1-carboxylic acid (1-({-tert-butylcarbamoyl-2-[4-(1-hydroxy-cyclohexylethynyl)-phenyl]-ethylcarbamoyl}-3-methyl-butyl)-amide]	17%		31%	43%		
